# Reference: patent publication EP4603105A1, “PHARMACEUTICAL COMPOSITION CONTAINING CYCLIC COMPOUND HAVING SELECTIVE KRAS INHIBITORY EFFECT AGAINST HRAS AND NRAS” (CHUGAI SEIYAKU KABUSHIKI KAISHA, priority 2022, dated 2024)
# Tests used:
# [1] = target: GDP-bound KRAS wild-type protein (Homo sapiens, UniProt P01116); experiment: Binding to KRAS by surface plasmon resonance (SPR), dissociation constant KD
# Outline: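 Affinity is measured by surface plasmon resonance at 30°C against captured, GDP-loaded RAS carrying a biotinylated Avi tag. Compounds are titrated by single-cycle kinetics, and KD comes from a 1:1 fit.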
# [2] = target: GDP-bound NRAS wild-type protein (Homo sapiens, UniProt P01111); experiment: Binding to NRAS by surface plasmon resonance (SPR), KD and KD ratio to KRAS
# Outline: (§1)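 Recombinant RAS proteins bearing a biotinylated Avi tag and loaded with GDP served as the captured ligand, recaptured fresh every cycle. Binding responses were referenced to an uncoated surface and a buffer-only blank cycle. Dissociation constants were obtained by 1:1 model fitting at 30°C.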
# [3] = target: HRAS wild-type protein (Homo sapiens, UniProt P01112); experiment: Binding to HRAS by surface plasmon resonance (SPR), KD and KD ratio to KRAS
# Outline: as §1
# [4] = test system: human lung cancer strain NCI-H441; assay type: cell-based
# Outline: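 Signal came from […] measured per well once the reagent was added. Beforehand, cells were cultured at 37°C and 5% carbon dioxide on a compound series serially diluted in dimethyl sulfoxide.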
# [5] = ratio of KD for GDP-bound NRAS wild-type protein to KD for KRAS
# [6] = ratio of KD for HRAS wild-type protein to KD for KRAS
# [7] = Single Cycle Kinetics, 1:1 binding model
# [8] = ratio of the KD value with respect to GDP-bound NRAS wild-type protein to the KD value with respect to KRAS
# [9] = ratio of the KD value with respect to HRAS wild-type protein to the KD value with respect to KRAS
# Chain of GDP-bound NRAS wild-type protein (P01111 whole entry): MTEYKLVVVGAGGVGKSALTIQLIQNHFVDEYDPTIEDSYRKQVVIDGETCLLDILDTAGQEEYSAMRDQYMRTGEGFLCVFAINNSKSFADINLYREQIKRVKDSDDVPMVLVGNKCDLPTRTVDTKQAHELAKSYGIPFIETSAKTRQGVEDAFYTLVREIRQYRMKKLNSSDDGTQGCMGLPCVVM
# Chain of HRAS wild-type protein (P01112 whole entry): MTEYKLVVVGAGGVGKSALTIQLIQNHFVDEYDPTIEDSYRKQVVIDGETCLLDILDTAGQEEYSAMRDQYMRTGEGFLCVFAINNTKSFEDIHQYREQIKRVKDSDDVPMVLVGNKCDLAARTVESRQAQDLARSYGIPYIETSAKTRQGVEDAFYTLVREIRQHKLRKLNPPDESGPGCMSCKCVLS
# Chain of GDP-bound KRAS wild-type protein (P01116 1-188 isoform P01116-2): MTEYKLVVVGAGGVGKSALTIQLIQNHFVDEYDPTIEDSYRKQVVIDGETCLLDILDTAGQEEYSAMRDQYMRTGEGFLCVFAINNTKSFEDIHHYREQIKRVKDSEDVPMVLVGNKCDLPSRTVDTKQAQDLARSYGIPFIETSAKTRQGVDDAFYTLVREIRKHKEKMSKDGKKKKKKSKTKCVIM
IC50 [4],"Kd [1, 7]",SMILES,"NRAS /KRAS [2, 5]","HRAS /KRAS [3, 6]",other results
43.9 nM,,CCO[C@@H]1C[C@H]2C(=O)NC3(CCC3)C(=O)N(C)[C@@H](C3CCCC3)C(=O)N(C)[C@H](C(=O)N(C)C)CC(=O)N(C)[C@@H](CC(C)C)C(=O)N[C@@H]([C@@H](C)CC)C(=O)N(C)CC(=O)N(C)[C@H]3CC(C)=CCN(C3=O)[C@@H](Cc3ccc(C(F)(F)F)cc3)C(=O)N(C)CC(=O)N[C@@H](CCc3cc(F)c(C(F)(F)F)c(F)c3)C(=O)N2C1 [PP1032],C (A compound having a KD ratio of 0.1 or more and less than 3 is denoted as C),C (A compound having a KD ratio of 0.1 or more and less than 3 is denoted as C),Kd ([1]; Single Cycle Kinetics): 0.38 nM
3.3 nM,,CCC[C@H]1C(=O)N[C@@H]([C@@H](C)CC)C(=O)N(C)CC(=O)N(C)[C@H]2C/C=C\CCN(C2=O)[C@@H](Cc2ccc(C(F)(F)F)cc2)C(=O)N(C)CC(=O)N[C@@H](CCc2ccc3sc(F)c(C)c3c2)C(=O)N2C[C@H](OCC)C[C@H]2C(=O)NC2(CC(C)(C)C2)C(=O)N(C)[C@@H](C2CCCC2)C(=O)N(C)[C@H](C(=O)N(C)C)CC(=O)N1C [PP2948],A (a compound having 10 or more and less than 20 is denoted as A),A (a compound having 10 or more and less than 20 is denoted as A),Kd ([1]; 1:1 binding model): 0.55 nM
13.6 nM,0.09 nM,C#CC[C@H]1C(=O)N[C@@H]([C@@H](C)CC)C(=O)N(C)CC(=O)N(C)[C@H]2C/C=C\CCN(C2=O)[C@@H](Cc2ccc(C(F)(F)F)cc2)C(=O)N(C)CC(=O)N[C@@H](CCc2ccc(C(F)(F)F)c(OC)c2)C(=O)N2C[C@@H](C)C[C@H]2C(=O)NC2(CCC2)C(=O)N(C)[C@@H](C2CCCC2)C(=O)N(C)[C@H](C(=O)N(C)CCC)CC(=O)N1C [PP2063],,,"NRAS /KRAS [2, 8]: AA (a compound having 20 or more is denoted as AA); HRAS /KRAS [3, 9]: A (a compound having 10 or more and less than 20 is denoted as A)"
5.5 nM,,CCO[C@@H]1C[C@H]2C(=O)NC3(CC(C)(C)C3)C(=O)N(C)[C@@H](C3CCCC3)C(=O)N(C)[C@H](C(=O)N(C)C)CC(=O)N(C)[C@@H]([C@@H](C)OC)C(=O)N[C@@H]([C@@H](C)CC)C(=O)N(C)CC(=O)N(C)[C@H]3C/C=C\CCN(C3=O)[C@@H](Cc3ccc(C)cc3)C(=O)N(C)CC(=O)N[C@@H](CCc3ccc(C(F)(F)F)c(Cl)c3)C(=O)N2C1 [PP3209],A (a compound having 10 or more and less than 20 is denoted as A),B (a compound having 3 or more and less than 10 is denoted as B),Kd ([1]; 1:1 binding model): 0.1 nM
38.4 nM,0.69 nM,CC[C@H](C)[C@@H]1NC(=O)[C@H](CC(C)C)N(C)C(=O)C[C@@H](C(=O)N(C)C)N(C)C(=O)[C@H](C2CCCC2)N(C)C(=O)C2(CCCC2)NC(=O)[C@@H]2CCCN2C(=O)[C@H](CCc2ccc(C(F)(F)F)c(Cl)c2)NC(=O)CN(C)C(=O)[C@H](Cc2ccc(C)cc2)N2CC=C(C)C[C@@H](C2=O)N(C)C(=O)CN(C)C1=O [PP0620],,,"NRAS /KRAS [2, 8]: C (A compound having a KD ratio of 0.1 or more and less than 3 is denoted as C); HRAS /KRAS [3, 9]: C (A compound having a KD ratio of 0.1 or more and less than 3 is denoted as C)"
97.1 nM,0.64 nM,CC[C@H](C)[C@@H]1NC(=O)[C@H](CC(C)C)N(C)C(=O)C[C@@H](C(=O)N2C[C@@H](C)O[C@@H](C)C2)N(C)C(=O)[C@H](C2CCCC2)N(C)C(=O)C2(CCCC2)NC(=O)[C@@H]2CCCN2C(=O)[C@H](CCc2ccc(C(F)(F)F)c(Cl)c2)NC(=O)CN(C)C(=O)[C@H](Cc2ccc(F)cc2)N2CCCCC[C@@H](C2=O)N(C)C(=O)CN(C)C1=O [PP1151],,,NRAS /KRAS ([2]; ratio of KD with respect to GDP-bound NRAS wild-type protein to KD with respect to KRAS): B (a compound having 3 or more and less than 10 is denoted as B); HRAS /KRAS ([3]; ratio of KD with respect to HRAS wild-type protein to KD with respect to KRAS): B (a compound having 3 or more and less than 10 is denoted as B)
129 nM,0.94 nM,CCO[C@@H]1C[C@H]2C(=O)NC3(CCC3)C(=O)N(C)[C@@H](C3CCCC3)C(=O)N(C)[C@H](C)CC(=O)N(C)[C@@H](CC3CCCC3)C(=O)N[C@@H]([C@@H](C)CC)C(=O)N(C)CC(=O)N(C)[C@H]3C/C=C\CCN(C3=O)[C@@H](Cc3ccc(F)cc3)C(=O)N(C)CC(=O)N[C@@H](CCc3cc(F)c(C(F)(F)F)c(F)c3)C(=O)N2C1 [PP1492],,,NRAS /KRAS ([2]; ratio of KD value for GDP-bound NRAS wild-type protein to KD value for KRAS (SPR)): B (a compound having 3 or more and less than 10 is denoted as B); HRAS /KRAS ([3]; ratio of KD value for HRAS wild-type protein to KD value for KRAS (SPR)): B (a compound having 3 or more and less than 10 is denoted as B)

SMILES,IC50 [4],"Kd [1, 7]","NRAS /KRAS [2, 5]","HRAS /KRAS [3, 6]",other results
CCO[C@@H]1C[C@H]2C(=O)NC3(CCC3)C(=O)N(C)[C@@H](C3CCCC3)C(=O)N(C)[C@H](C(=O)N3C4CCC3COC4)CC(=O)N(C)[C@@H](CC)C(=O)N[C@@H]([C@@H](C)CC)C(=O)N(C)CC(=O)N(C)[C@H]3C/C=C\CCN(C3=O)[C@@H](Cc3ccc(C(F)(F)F)cc3)C(=O)N(C)CC(=O)N[C@@H](CCc3cc(F)c(C(F)(F)F)c(F)c3)C(=O)N2C1 [PP1093],78.7 nM,,AA (a compound having 20 or more is denoted as AA),A (a compound having 10 or more and less than 20 is denoted as A),Kd ([1]; Single Cycle Kinetics): 0.58 nM
